Data set [1] deals with Leishmania tropica. In words: Antileishmanial activity against Leishmania tropica MHOM/A7/1974/SAF-K27 incubated for 48 hrs by XTT method. Type of data set: functional, organism-based. Particulars: MHOM/A7/1974/SAF-K27, 48 h.
Data set [2] relates to Leishmania infantum. Nature of the data set: Antileishmanial activity against Leishmania infantum MHOM/TN/1980/IPT1 incubated for 48 hrs by Neubauer hemocytometer analysis. Type of data set: functional, organism-based. Particulars: MHOM/TN/1980/IPT1, 48 h.
Data set [3] has as its system Leishmania infantum. In words: Antileishmanial activity against Leishmania infantum MHOM/TN/1980/IPT1 incubated for 48 hrs by XTT method. Type of data set: functional, organism-based. To be noted: MHOM/TN/1980/IPT1, 48 h.
The subject of data set [4] is Leishmania tropica. In words: Antileishmanial activity against Leishmania tropica MHOM/A7/1974/SAF-K27 incubated for 48 hrs by Neubauer hemocytometer analysis. In kind it is functional, organism-based. To be noted: MHOM/A7/1974/SAF-K27, 48 h.
The next data set has as its target T1, Pteridine reductase 1 (Leishmania major, UniProt Q01782).
T1 sequence (Q01782 whole entry): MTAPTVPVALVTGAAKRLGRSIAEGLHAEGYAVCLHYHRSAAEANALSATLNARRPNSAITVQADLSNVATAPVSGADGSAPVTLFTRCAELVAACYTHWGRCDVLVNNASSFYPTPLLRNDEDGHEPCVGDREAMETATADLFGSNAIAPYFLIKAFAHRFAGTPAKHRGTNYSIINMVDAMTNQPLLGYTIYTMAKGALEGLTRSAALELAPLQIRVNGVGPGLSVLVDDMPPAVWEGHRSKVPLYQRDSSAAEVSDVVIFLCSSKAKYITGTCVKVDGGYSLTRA
Nature of the data set: Inhibition of recombinant Leishmania major PTR1 expressed in Escherichia coli BL21 using folic acid as substrate in presence of NADPH.

The next data set has as its system RAW264.7. Nature of the data set: (§1) Cytotoxicity against mouse RAW264.7 cells by alamar blue method. Type of data set: toxicity, cell-based. Particulars: raw264.7.
Data set [5] in a line: as §1. To be noted: mouse, RAW264.7 cells. In kind it is toxicity, cell-based.
Data set [6] concerns DHFR (human) versus PTR1 (Leishmania major). In words: Selectivity index, ratio of IC50 for human DHFR to IC50 for Leishmania major PTR1. In kind it is toxicity. To be noted: human DHFR enzyme and Leishmania major PTR1 enzyme, read-out: Ratio IC50.
The test system of another data set is L929. In words: (§2) Cytotoxicity against mouse L929 cells by alamar blue method. Type of data set: toxicity, cell-based. Particulars: l929.
A short description of data set [7]: as §2. In kind it is toxicity, cell-based. Particulars: mouse, L929 cells.

≈ marks a conversion by molar mass, not a printed value.

The IC50 is the concentration that inhibits the measured activity by half.

Turning to `O=C(Nc1nc2cnc(Cl)nc2s1)c1ccc(Cl)c([N+](=O)[O-])c1`, the IC50 was 30.7 µg/mL (≈ 82.9 µM) in the data set on Leishmania tropica [1], 30.5 µg/mL (≈ 82.4 µM) with Leishmania infantum [2], 30.6 µg/mL (≈ 82.6 µM) in the data set with Leishmania infantum [3] and 30.6 µg/mL (≈ 82.7 µM) with Leishmania tropica [4].

For the molecule `CCOC(=O)N1CCN(c2ncc3nc(NC(=O)c4ccc(Cl)cc4)sc3n2)CC1`, the IC50 in the data set on Leishmania tropica [1] came out at 54.1 µg/mL (≈ 121 µM); in the data set on Leishmania infantum [2], 52.4 µg/mL (≈ 117 µM); in the data set on Leishmania infantum [3], 53.5 µg/mL (≈ 120 µM); in the data set on Leishmania tropica [4], 53.9 µg/mL (≈ 121 µM).

`O=C(Nc1nc2cnc(N3CCCCC3)nc2s1)c1ccc(Cl)cc1Cl`: the IC50 in the data set on Leishmania tropica [1] stood at 16.3 µg/mL (≈ 39.8 µM); with Leishmania infantum [2], 16.8 µg/mL (≈ 41.1 µM); with Leishmania infantum [3], 16.8 µg/mL (≈ 41.1 µM); with Leishmania tropica [4] it was 16.3 µg/mL (≈ 39.9 µM).

Take `CC(=O)N1CCN(c2ncc3nc(NC(=O)c4ccc(Cl)c(Cl)c4)sc3n2)CC1`: the IC50 with Leishmania tropica [1] was determined as 149 µg/mL (≈ 331 µM); with Leishmania infantum [2] it was 126 µg/mL (≈ 279 µM); in the data set on Leishmania infantum [3], 127 µg/mL (≈ 282 µM); with Leishmania tropica [4], 147 µg/mL (≈ 326 µM).

Consider `O=C(Nc1nc2cnc(N3CCOCC3)nc2s1)c1ccc(Cl)c(Cl)c1`, for which the IC50 in the data set with Leishmania tropica [1] was found to be 41.4 µg/mL (≈ 101 µM); in the data set on Leishmania infantum [2], 44.1 µg/mL (≈ 108 µM); in the data set with Leishmania infantum [3], 44.6 µg/mL (≈ 109 µM); in the data set on Leishmania tropica [4] it was 40.3 µg/mL (≈ 98.2 µM).

Regarding `O=C(Nc1nc2cnc(N3CCOCC3)nc2s1)c1ccc(Cl)cc1Cl`, the IC50 in the data set on Leishmania tropica [1] was 90.6 µg/mL (≈ 221 µM); in the data set on Leishmania infantum [2], 91.1 µg/mL (≈ 222 µM); in the data set with Leishmania infantum [3] it was 90.9 µg/mL (≈ 222 µM); in the data set on Leishmania tropica [4] it was 90.3 µg/mL (≈ 220 µM).

Turning to `CN1CCN(c2ncc3nc(NC(=O)c4ccc(Cl)c([N+](=O)[O-])c4)sc3n2)CC1`, the IC50 with Leishmania tropica [1] was 53.8 µg/mL (≈ 124 µM); in the data set on Leishmania infantum [2], 58.8 µg/mL (≈ 135 µM); in the data set with Leishmania infantum [3] it was 60.4 µg/mL (≈ 139 µM); in the data set with Leishmania tropica [4] it was 51.5 µg/mL (≈ 119 µM).

As for `O=C(Nc1nc2cnc(N3CCCC3)nc2s1)c1ccc(Cl)cc1Cl`, the IC50 in the data set on Leishmania tropica [1] was determined as 52 µg/mL (≈ 132 µM); in the data set on Leishmania infantum [2], 52.4 µg/mL (≈ 133 µM); in the data set on Leishmania infantum [3], 52.6 µg/mL (≈ 133 µM); with Leishmania tropica [4], 51.2 µg/mL (≈ 130 µM).

As to `CC(=O)N1CCN(c2ncc3nc(NC(=O)c4ccc(Cl)c([N+](=O)[O-])c4)sc3n2)CC1`, the IC50 in the data set on Leishmania tropica [1] came out at 35.3 µg/mL (≈ 76.3 µM); in the data set with Leishmania infantum [2], 35.5 µg/mL (≈ 76.8 µM); with Leishmania infantum [3], 36.1 µg/mL (≈ 78.1 µM); in the data set with Leishmania tropica [4] it was 34.4 µg/mL (≈ 74.4 µM).

Regarding `O=C(Nc1nc2cnc(N3CCCCC3)nc2s1)c1ccc(Cl)c([N+](=O)[O-])c1`, the concentration for half-maximal inhibition (IC50) in the data set on Leishmania tropica [1] worked out at 56.7 µg/mL (≈ 135 µM); with Leishmania infantum [2], 64 µg/mL (≈ 153 µM); with Leishmania infantum [3] it was 63.5 µg/mL (≈ 152 µM); in the data set on Leishmania tropica [4] it was 56.8 µg/mL (≈ 136 µM).

Take `CN(C)c1ncc2nc(NC(=O)c3ccc(Cl)cc3Cl)sc2n1`: the IC50 in the data set on Leishmania tropica [1] amounted to 86.2 µg/mL (≈ 234 µM); in the data set with Leishmania infantum [2], 84.1 µg/mL (≈ 228 µM); with Leishmania infantum [3] it was 81.1 µg/mL (≈ 220 µM); in the data set on Leishmania tropica [4], 86.6 µg/mL (≈ 235 µM).

For the molecule `CCN(CC)c1ncc2nc(NC(=O)c3ccc(Cl)cc3Cl)sc2n1`, the IC50 in the data set with Leishmania tropica [1] came to 125 µg/mL (≈ 315 µM); in the data set with Leishmania infantum [2], 123 µg/mL (≈ 310 µM); in the data set on Leishmania infantum [3], 124 µg/mL (≈ 312 µM); in the data set on Leishmania tropica [4], 120 µg/mL (≈ 303 µM).

Take `CCN(CC)c1ncc2nc(NC(=O)c3ccc(Cl)cc3)sc2n1`: the IC50 in the data set with Leishmania tropica [1] stood at 188 µg/mL (≈ 520 µM); in the data set on Leishmania infantum [2], 191 µg/mL (≈ 528 µM); in the data set with Leishmania infantum [3], 189 µg/mL (≈ 523 µM); with Leishmania tropica [4] it was 186 µg/mL (≈ 515 µM).

Take `CCOC(=O)N1CCN(c2ncc3nc(NC(=O)c4ccc(Cl)cc4Cl)sc3n2)CC1`: the IC50 in the data set on Leishmania tropica [1], with Leishmania infantum [2], in the data set with Leishmania infantum [3] and in the data set with Leishmania tropica [4] was greater than 300 µg/mL each time.

On to `CC(=O)N1CCN(c2ncc3nc(NC(=O)c4ccc(Cl)cc4Cl)sc3n2)CC1`, for which the IC50 with Leishmania tropica [1] was determined as 75.8 µg/mL (≈ 168 µM); with Leishmania infantum [2] it was 77.7 µg/mL (≈ 172 µM); with Leishmania infantum [3] it was 78.6 µg/mL (≈ 174 µM); with Leishmania tropica [4], 75 µg/mL (≈ 166 µM).

`CC(=O)N1CCN(c2ncc3nc(NC(=O)c4ccc(Cl)cc4)sc3n2)CC1`: the half-inhibitory concentration (IC50) in the data set on Leishmania tropica [1], with Leishmania infantum [2], with Leishmania infantum [3] and in the data set with Leishmania tropica [4] was greater than 300 µg/mL throughout.

Regarding `O=C(Nc1nc2cnc(N3CCCC3)nc2s1)c1ccc(Cl)c(Cl)c1`, the IC50 with Leishmania tropica [1], with Leishmania infantum [2], with Leishmania infantum [3] and with Leishmania tropica [4] was greater than 300 µg/mL each time.

`CCN(CC)c1ncc2nc(NC(=O)c3ccc(Cl)c([N+](=O)[O-])c3)sc2n1`: the IC50 is 254 µM on Pteridine reductase 1; 15.6 µg/mL (≈ 38.2 µM) with Leishmania tropica [1]; 15.1 µg/mL (≈ 37.2 µM) in the data set with Leishmania infantum [2]; 4.47 µg/mL (≈ 11 µM) in data set [5]; 15.3 µg/mL (≈ 37.6 µM) with Leishmania infantum [3]; 19.1 µg/mL (≈ 46.8 µM) in data set [7]. Moreover, in the data set on Leishmania tropica [4], 15.8 µg/mL (≈ 38.7 µM) corresponded to half-maximal inhibition (IC50). Also, the “log10 IC50 (µg/mL)” value stood at 0.65 in the data set with RAW264.7 and 1.28 with L929. The selectivity ratio in data set [6] came out at 12.6.

`O=C(Nc1nc2cnc(N3CCCC3)nc2s1)c1ccc(Cl)cc1`: the IC50 with Leishmania tropica [1] is 141 µg/mL (≈ 392 µM); in the data set with Leishmania infantum [2] it was 114 µg/mL (≈ 315 µM); in the data set with Leishmania infantum [3], 117 µg/mL (≈ 326 µM); in the data set on Leishmania tropica [4], 137 µg/mL (≈ 380 µM).

As for `O=C(Nc1nc2cnc(N3CCCCC3)nc2s1)c1ccc(Cl)c(Cl)c1`, the IC50 with Leishmania tropica [1] amounted to 25.5 µg/mL (≈ 62.4 µM); in the data set with Leishmania infantum [2] it was 25.7 µg/mL (≈ 63 µM); in the data set on Leishmania infantum [3], 25.8 µg/mL (≈ 63.2 µM); with Leishmania tropica [4], 25.1 µg/mL (≈ 61.6 µM).

Consider `CN(C)c1ncc2nc(NC(=O)c3ccc(Cl)c(Cl)c3)sc2n1`, for which the IC50 with Leishmania tropica [1] was 119 µg/mL (≈ 322 µM); in the data set with Leishmania infantum [2] it was 112 µg/mL (≈ 304 µM); in the data set on Leishmania infantum [3] it was 114 µg/mL (≈ 310 µM); in the data set on Leishmania tropica [4], 116 µg/mL (≈ 315 µM).

Turning to `O=C(Nc1nc2cnc(N3CCCCC3)nc2s1)c1ccc(Cl)cc1`, the IC50 came to 122 µg/mL (≈ 327 µM) in the data set on Leishmania tropica [1], 119 µg/mL (≈ 317 µM) in the data set on Leishmania infantum [2], 121 µg/mL (≈ 324 µM) with Leishmania infantum [3] and 116 µg/mL (≈ 310 µM) with Leishmania tropica [4].

With `CN(C)c1ncc2nc(NC(=O)c3ccc(Cl)cc3)sc2n1`, the IC50 in the data set with Leishmania tropica [1], in the data set on Leishmania infantum [2], in the data set with Leishmania infantum [3] and with Leishmania tropica [4] was greater than 300 µg/mL throughout.

`O=C(Nc1nc2cnc(Cl)nc2s1)c1ccc(Cl)c(Cl)c1`: the IC50 with Leishmania tropica [1] turned out to be 15.1 µg/mL (≈ 41.9 µM); with Leishmania infantum [2], 14.1 µg/mL (≈ 39.3 µM); with Leishmania infantum [3] it was 14.4 µg/mL (≈ 40 µM); with Leishmania tropica [4], 14.8 µg/mL (≈ 41.1 µM).

Turning to `O=C(Nc1nc2cnc(N3CCOCC3)nc2s1)c1ccc(Cl)cc1`, the IC50 in the data set with Leishmania tropica [1], with Leishmania infantum [2], in the data set with Leishmania infantum [3] and in the data set on Leishmania tropica [4] was greater than 300 µg/mL each time.

The record behind these values is ChEMBL document CHEMBL5352486, “Design, synthesis, in vitro - In vivo biological evaluation of novel thiazolopyrimidine compounds as antileishmanial agent with PTR1 inhibition” (Eur J Med Chem, 2023).
